Data from publication PMC4386948, “Artemether-lumefantrine co-administration with antiretrovirals: population pharmacokinetics and dosing implications” (British Journal of Clinical Pharmacology, 2014).
Like-named read-outs stand apart in the source and are kept apart here. One block for each compound: values may come before it.

Legend:
[1] = Population pharmacokinetics of lumefantrine/desbutyl-lumefantrine alone and with efavirenz, nevirapine or lopinavir/ritonavir (non-linear mixed effects modelling of plasma concentrations); assay type: in vivo, human; conditions: for CL/F, apparent elimination clearance, population estimate [RSE %]: parent fully converted to metabolite; for EFZCL/F, effect on elimination clearance by concomitant treatment with efavirenz: concomitant efavirenz 600 mg; for EFZCL/F, effect on elimination clearance by concomitant treatment with efavirenz / LOPCL/F, effect on elimination clearance by concomitant treatment with lopinavir/ritonavir: positive = increase; for LOPCL/F, effect on elimination clearance by concomitant treatment with lopinavir/ritonavir: concomitant lopinavir/ritonavir 400/100 mg
Text: Study 1 was a parallel group study in HIV-infected patients. Inclusion criteria were age >18 years, informed written consent and a confirmed HIV diagnosis. Exclusion criteria were anaemia (haemoglobin levels below 8 g dl^–1), viral loads above 400 counts ml^−1, malaria parasitaemia, abnormal liver or renal function, pregnancy, the use of substances which inhibit or induce CYP enzymes or P-glycoprotein, use of herbal medicines, prolonged QT interval, or any intercurrent illness. Ethics approval was received from the Uganda National HIV/AIDS Research Committee (ARC 056) and the Uganda National Council of Science and Technology (HS 195) and the study was registered with http://ClinicalTrials.gov (NCT 00619944).
Study 2 was a three period, crossover study in HIV-infected patients. Inclusion and exclusion criteria were the same as for study 1 (i.e. age >18 years, informed written consent and a confirmed HIV diagnosis) except that there were no restrictions based on viral load, and patients with hypersensitivity to artemisinins, lumefantrine or halofantrine or any history of cardiac disease were excluded from the study. Ethics approval was received from the Uganda National HIV/AIDS Research Committee (ARC 059) and from the Uganda National Council of Science and Technology (HS 196). The study was registered at http://ClinicalTrials.gov (NCT00620438).
Patients in the first arm were treated with 400/100 mg of lopinavir/ritonavir (Aluvia®, Abbott Laboratories, Abbott Park, Illinois, USA) and two nucleoside reverse transcriptase inhibitors (zidovudine and didanosine or tenofovir and emtricitabine, regional non-controlled procurement). The drugs were taken twice daily for at least 1 month before the start of the study. Patients in the second arm had not yet started their HIV therapy. At the initiation of the study all patients received a single dose of 80 mg artemether and 480 mg lumefantrine (four tablets) (Coartem®, Novartis Pharma AG, Basel, Switzerland; Batch number: F0660). Venous plasma samples were drawn at 1, 2, 4, 6, 8, 12, 24, 48 and 72 h post-dose.
At the start of the study, all patients received a standard treatment of artemether and lumefantrine (80/480 mg twice daily for 3 days; Coartem®). Plasma samples were collected after the last dose at 1, 2, 4, 8, 12, 24, 48, 72, 96 and 120 h post-dosing. After 1 week of wash-out, patients started HIV treatment with either nevirapine (200 mg) or efavirenz (600 mg) combined with the nucleoside reverse transcriptase inhibitors zidovudine and lamivudine. Patients received HIV treatment alone for 1 month and then were given a standard six dose treatment of artemether and lumefantrine concomitantly. Plasma samples were again collected after the last artemether-lumefantrine dose.
Artemether/dihydroartemisinin and lumefantrine were quantified in plasma samples according to previously published methods. Artemether and dihydroartemisinin were measured using solid phase extraction and liquid chromatography coupled with tandem mass spectrometric detection. […] Lumefantrine was measured using solid phase extraction followed by liquid chromatography with ultraviolet detection.
Desbutyl-lumefantrine was measured using liquid chromatography (Model 1200 system, Agilent Technologies) coupled with tandem mass spectrometric detection (API5000 triple-quadrupole system, AB Sciex). Desbutyl-lumefantrine and its analogue internal standard (C28H28CL3NO [39]) were extracted from plasma samples (100 μl) by protein precipitation followed by phospholipid removal (Hybrid SPE-Precipitation 96-wellplate, 575656-U, Supelco).

[2] = cited from earlier work
[3] = Population pharmacokinetics of artemether/dihydroartemisinin alone and with efavirenz, nevirapine or lopinavir/ritonavir (non-linear mixed effects modelling of plasma concentrations); assay type: in vivo, human; conditions: for Vc/F, apparent volume of distribution of the central compartment, population estimate [RSE %] / CL/F, apparent elimination clearance, population estimate [RSE %]: HIV-infected adults, oral artemether-lumefantrine, plasma; for CL/F, apparent elimination clearance, population estimate [RSE %]: parent fully converted to metabolite; for exposure: nevirapine or lopinavir/ritonavir (all three antiretroviral drugs); for LOPCL/F, effect on elimination clearance by concomitant treatment with lopinavir/ritonavir: concomitant lopinavir/ritonavir 400/100 mg, positive = increase
Text: Study 1 was a parallel group study in HIV-infected patients. Inclusion criteria were age >18 years, informed written consent and a confirmed HIV diagnosis. Exclusion criteria were anaemia (haemoglobin levels below 8 g dl^-1), viral loads above 400 counts ml^-1, malaria parasitaemia, abnormal liver or renal function, pregnancy, the use of substances which inhibit or induce CYP enzymes or P-glycoprotein, use of herbal medicines, prolonged QT interval, or any intercurrent illness. Ethics approval was received from the Uganda National HIV/AIDS Research Committee (ARC 056) and the Uganda National Council of Science and Technology (HS 195) and the study was registered with http://ClinicalTrials.gov (NCT 00619944). Study 2 was a three period, crossover study in HIV-infected patients. Inclusion and exclusion criteria were the same as for study 1 (i.e. age >18 years, informed written consent and a confirmed HIV diagnosis) except that there were no restrictions based on viral load, and patients with hypersensitivity to artemisinins, lumefantrine or halofantrine or any history of cardiac disease were excluded from the study. Ethics approval was received from the Uganda National HIV/AIDS Research Committee (ARC 059) and from the Uganda National Council of Science and Technology (HS 196). The study was registered at http://ClinicalTrials.gov (NCT00620438). Patients in the first arm were treated with 400/100 mg of lopinavir/ritonavir (Aluvia®, Abbott Laboratories, Abbott Park, Illinois, USA) and two nucleoside reverse transcriptase inhibitors (zidovudine and didanosine or tenofovir and emtricitabine, regional non-controlled procurement). The drugs were taken twice daily for at least 1 month before the start of the study. Patients in the second arm had not yet started their HIV therapy. At the initiation of the study all patients received a single dose of 80 mg artemether and 480 mg lumefantrine (four tablets) (Coartem®, Novartis Pharma AG, Basel, Switzerland; Batch number: F0660). Venous plasma samples were drawn at 1, 2, 4, 6, 8, 12, 24, 48 and 72 h post-dose. At the start of the study, all patients received a standard treatment of artemether and lumefantrine (80/480 mg twice daily for 3 days; Coartem®). Plasma samples were collected after the last dose at 1, 2, 4, 8, 12, 24, 48, 72, 96 and 120 h post-dosing. […] Patients received HIV treatment alone for 1 month and then were given a standard six dose treatment of artemether and lumefantrine concomitantly. Plasma samples were again collected after the last artemether-lumefantrine dose. Artemether/dihydroartemisinin and lumefantrine were quantified in plasma samples according to previously published methods. Artemether and dihydroartemisinin were measured using solid phase extraction and liquid chromatography coupled with tandem mass spectrometric detection. The total coefficient of variation (%CV) was less than 6% and the lower limit of quantification was set to 1.4 ng ml^-1. Lumefantrine was measured using solid phase extraction followed by liquid chromatography with ultraviolet detection. The total coefficient of variation was below 6% and the lower limit of quantification was set to 25 ng ml^-1. Modelling and simulations were performed in NONMEM v7.12 (Icon Development Solutions, Ellicott City, Maryland, USA). Model discrimination was based on the objective function value (OFV) which is proportional to -2 times the log-likelihood of the data. […]2.6.0 was used to document the modelling process. R v2.14.2 (the R Foundation for Statistical Computing, Vienna, Austria) and the package Xpose v4.3.5 [43] was used to perform model diagnostics. Perl-speaks-NONMEM v3.5.3 was used for automation throughout the modelling process. Data below the limit of quantification were initially omitted or modelled as categorical data (M3-method), if necessary. […]

[4] = HIV-infected adults, oral artemether-lumefantrine, plasma
[5] = concomitant lopinavir/ritonavir
[6] = stated in methods, no reference given

Q/F, inter-compartment clearance, population estimate [RSE %] [1, 4]: 2.86 [19.4] l h^−1
VP/F, apparent volume of distribution of the peripheral compartment, population estimate [RSE %] [1, 4]: 111 [9.14] l
Vc/F, apparent volume of distribution of the central compartment, population estimate [RSE %] [1, 4]: 68.9 [27.1] l
CL/F, apparent elimination clearance, population estimate [RSE %] [1, 4]: 4.77 [5.30] l h^−1
EFZCL/F, effect on elimination clearance by concomitant treatment with efavirenz [1]: 72.6%
EFZCL/F, effect on elimination clearance by concomitant treatment with efavirenz ([1]; listed as Lumefantrine): 72.6 [17.2] %
decrease of elimination clearance [1, 5]: 62%
LOPCL/F, effect on elimination clearance by concomitant treatment with lopinavir/ritonavir [1]: −62.1 [8.48] %
lowering of relative bioavailability ([1]; concomitant nevirapine): 25%
MTT, mean transit time of the absorption, population estimate [RSE %] ([1]; one transit compartment): 6.27 [21.2] h
SMILES: CCCCN(CCCC)CC(O)c1cc(Cl)cc2c1-c1ccc(Cl)cc1/C2=C/c1ccc(Cl)cc1 (centres unmarked) [lumefantrine]
elimination half-life [2]: 48 to 96 h
increase of exposure for a 100% dose increase (dose limited absorption, assumed in simulations) [2]: 70%
systemic exposure relative to its metabolite desbutyl-lumefantrine [2]: 85- to 300 fold
terminal half-life [2, 6]: 79.2 h

CL/F, apparent elimination clearance, population estimate [RSE %] [1, 4]: 489 [5.98] l h^−1
exposure [1, 5]: decreased exposure
LOPCL/F, effect on elimination clearance by concomitant treatment with lopinavir/ritonavir [1]: 392%
LOPCL/F, effect on elimination clearance by concomitant treatment with lopinavir/ritonavir ([1]; listed as Desbutyl-Lumefantrine): 392 [17.6] %
exposure ([1]; concomitant nevirapine, due to lower bioavailability of lumefantrine): decreased
SMILES: CCCCNCC(O)c1cc(Cl)cc2c1-c1ccc(Cl)cc1/C2=C/c1ccc(Cl)cc1 (centres unmarked) [desbutyl-lumefantrine]

Vc/F, apparent volume of distribution of the central compartment, population estimate [RSE %] [3]: 1090 [8.69] l
CL/F, apparent elimination clearance, population estimate [RSE %] [3]: 317 [8.25] l h^−1
Hill coefficient in the maturation model (auto-induction) ([3]; MMAX 1 FIX, MF50 62 FIX, reduced dataset): 0.445 [43.9 ^‡]
decrease of relative bioavailability ([3]; concomitant efavirenz): 71%
exposure ([3]; concomitant efavirenz): decreased
LOPCL/F, effect on elimination clearance by concomitant treatment with lopinavir/ritonavir [3]: 32.8%
LOPCL/F, effect on elimination clearance by concomitant treatment with lopinavir/ritonavir ([3]; listed as Artemether): 32.8 [21.5] %
decrease of relative bioavailability ([3]; concomitant nevirapine): 66%
MTT, mean transit time of the absorption phase, population estimate [RSE %] ([3]; three transit compartments): 0.970 [6.58] h
SMILES: CO[C@H]1O[C@@H]2O[C@@]3(C)CC[C@H]4[C@H](C)CC[C@@H]([C@H]1C)[C@@]24OO3 [artemether]
terminal half-life [2]: 1.5 to 2.0 h

Vc/F, apparent volume of distribution of the central compartment, population estimate [RSE %] [3]: 14.9 [39.8] l
CL/F, apparent elimination clearance, population estimate [RSE %] [3]: 160 [4.93] l h^−1
exposure ([3]; concomitant efavirenz): decreased
LOPCL/F, effect on elimination clearance by concomitant treatment with lopinavir/ritonavir [3]: 143%
LOPCL/F, effect on elimination clearance by concomitant treatment with lopinavir/ritonavir ([3]; listed as Dihydroartemisinin): 143 [19.7] %
decrease of elimination clearance ([3]; concomitant nevirapine): 44%
NEVCL/F, effect on elimination clearance by concomitant treatment with nevirapine ([3]; concomitant nevirapine 200 mg): −44.5 [14.5] %
SMILES: C[C@H]1[C@@H](O)O[C@@H]2O[C@@]3(C)CC[C@H]4[C@H](C)CC[C@@H]1[C@@]24OO3 [dihydroartemisinin]
half-life [2]: 0.8 to 2.1 h
terminal half-life [2, 6]: 1 to 2 h
